In ChEMBL document CHEMBL5126530, “Building on endogenous lipid mediators to design synthetic receptor ligands” (Eur J Med Chem, 2022):

Legend:
Format in all cases: functional, cell-based
[1] = target: T1, Prostaglandin E2 receptor EP1 subtype (Homo sapiens, UniProt P34995); assay: Agonist activity at human EP1 expressed in HEK293 cells assessed as increase in cAMP level incubated for 20 mins measured after 60 mins addition of cAMP detect reagent by HTRF analysis
T1 sequence (P34995 whole entry): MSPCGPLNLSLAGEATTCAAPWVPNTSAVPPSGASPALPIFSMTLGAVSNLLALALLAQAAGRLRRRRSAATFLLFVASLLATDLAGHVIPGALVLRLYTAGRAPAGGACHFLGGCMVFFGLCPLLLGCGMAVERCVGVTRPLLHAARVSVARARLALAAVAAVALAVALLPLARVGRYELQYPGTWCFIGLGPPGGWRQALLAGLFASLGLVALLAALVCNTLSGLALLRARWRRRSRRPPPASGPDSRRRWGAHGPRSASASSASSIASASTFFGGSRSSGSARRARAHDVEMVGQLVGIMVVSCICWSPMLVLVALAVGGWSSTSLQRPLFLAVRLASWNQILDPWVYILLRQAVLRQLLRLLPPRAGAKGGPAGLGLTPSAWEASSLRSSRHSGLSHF

[2] = target: Prostaglandin E2 receptor EP2 subtype (Homo sapiens, UniProt P43116); assay: Agonist activity at human EP2 expressed in HEK293 cells assessed as increase in cAMP level incubated for 20 mins measured after 60 mins addition of cAMP detect reagent by HTRF analysis
Prostaglandin E2 receptor EP2 subtype, sequence (P43116 whole entry): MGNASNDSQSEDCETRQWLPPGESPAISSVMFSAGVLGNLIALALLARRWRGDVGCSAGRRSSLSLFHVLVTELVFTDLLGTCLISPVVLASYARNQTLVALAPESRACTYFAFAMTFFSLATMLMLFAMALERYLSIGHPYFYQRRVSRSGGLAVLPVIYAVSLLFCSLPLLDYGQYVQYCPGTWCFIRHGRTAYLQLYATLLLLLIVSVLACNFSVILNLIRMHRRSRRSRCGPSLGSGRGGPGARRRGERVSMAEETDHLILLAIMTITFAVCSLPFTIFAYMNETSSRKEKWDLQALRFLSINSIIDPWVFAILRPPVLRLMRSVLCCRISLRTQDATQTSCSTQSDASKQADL

[3] = target: T2, Prostaglandin D2 receptor (Homo sapiens, UniProt Q13258); assay: Agonist activity at human DP1 expressed in human 1321N1 cells assessed as increase in cAMP level incubated for 20 mins measured after 60 mins addition of cAMP detect reagent by HTRF analysis
T2 sequence (Q13258 whole entry): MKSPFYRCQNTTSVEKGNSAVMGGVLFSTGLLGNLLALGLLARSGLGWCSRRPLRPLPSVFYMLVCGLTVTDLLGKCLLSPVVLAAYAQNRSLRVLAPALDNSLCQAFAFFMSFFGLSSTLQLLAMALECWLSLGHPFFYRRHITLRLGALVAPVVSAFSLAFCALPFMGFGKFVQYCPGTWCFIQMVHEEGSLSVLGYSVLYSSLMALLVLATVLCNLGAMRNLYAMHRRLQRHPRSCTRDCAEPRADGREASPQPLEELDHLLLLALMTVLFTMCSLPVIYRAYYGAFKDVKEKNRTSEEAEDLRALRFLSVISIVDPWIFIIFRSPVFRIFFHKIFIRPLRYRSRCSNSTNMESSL

Prostacyclin receptor = Prostacyclin receptor (Homo sapiens, UniProt P43119); assay: Agonist activity at human IP expressed in HEK293 cells assessed as increase in cAMP level incubated for 20 mins measured after 60 mins addition of cAMP detect reagent by HTRF analysis
Prostacyclin receptor, sequence (P43119 whole entry): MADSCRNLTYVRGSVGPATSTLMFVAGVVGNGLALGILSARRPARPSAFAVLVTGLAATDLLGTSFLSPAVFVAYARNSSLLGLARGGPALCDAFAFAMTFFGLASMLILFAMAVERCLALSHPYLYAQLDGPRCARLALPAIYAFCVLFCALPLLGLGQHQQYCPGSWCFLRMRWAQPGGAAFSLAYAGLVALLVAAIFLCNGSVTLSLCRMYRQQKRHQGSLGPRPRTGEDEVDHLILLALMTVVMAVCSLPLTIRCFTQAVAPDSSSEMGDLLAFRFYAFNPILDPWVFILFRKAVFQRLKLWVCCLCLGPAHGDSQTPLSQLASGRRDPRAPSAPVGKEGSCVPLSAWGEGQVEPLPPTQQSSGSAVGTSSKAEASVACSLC

| Compound | EC50 [1] [nM] | EC50 [2] [nM] | EC50 [3] [nM] | EC50 (Prostacyclin receptor) [nM] |
| --- | --- | --- | --- | --- |
| CC#CCC(C)[C@H](O)/C=C/[C@@H]1[C@H]2C/C(=C/CCCC(=O)O)C[C@H]2C[C@H]1O (some centres not stated) [ILOPROST] | 0.3 | 2090 | 2060 |  |
| CCCCC[C@H](O)CC[C@@H]1[C@H]2Cc3cccc(OCC(=O)O)c3C[C@H]2C[C@H]1O [TREPROSTINIL] | 285 | 6.2 | 0.6 | 1.9 |
